Experimental data published in US4400377A, “Use of polypeptides as analgesic drugs” (priority 1982, dated 1983).
Like-named read-outs stand apart in the source and are kept apart here. Square brackets hold non-standard residues; d marks the D form. Peptide text beside a SMILES is read from it. sY = N[C@@H](Cc1ccc(OS(=O)(=O)O)cc1)C(=O)O; pGlu = O=C1CC[C@@H](C(=O)O)N1

What was measured:
[1] = test system: patients suffering from chronic pain in cancer diseases; settings: i.v. bolus 1 nanogram/kg, single patients
[2] = test system: patients with pain after surgery

Compound: CSCC[C@H](NC(=O)[C@H](Cc1c[nH]c2ccccc12)NC(=O)CNC(=O)[C@@H](NC(=O)[C@H](Cc1ccc(OS(=O)(=O)O)cc1)NC(=O)[C@H](CC(=O)O)NC(=O)[C@H](CCC(N)=O)NC(=O)[C@@H]1CCC(=O)N1)[C@@H](C)O)C(=O)N[C@@H](CC(=O)O)C(=O)N[C@@H](Cc1ccccc1)C(N)=O [Ceruletide, ceruletide] ([pGlu]QD[sY]TGWMDF-NH2)
- Side-effects [1]: None
- Side-effects ([2]; i.m. 0.05 micrograms/kg, single patients (incl. second injection in patients 34, 40)): None
- Side-effects ([2]; i.m. 0.1 micrograms/kg, single patients): None and Burning sensation at the injection site and pain sensation at the injection site
